Assays:
Set-up in all cases: scale not given: the % may be the effect or the level left
[1] = target: Calcium/calmodulin-dependent protein kinase type 1 (Homo sapiens) (UniProt Q14012); assay: Inhibition of human CAMK1a assessed as enzyme activity at 1 uM using KKALRRQETVDAL as substrate preincubated for 20 mins followed by [gamma-33P]-ATP addition and measured after 120 mins by radiometric Hot-SpotSM Kinase assay relative to control
Homo sapiens = species on record: Homo sapiens; assay: Inhibition of human CDK2/cyclin A assessed as enzyme activity at 1 uM using RB Protein as substrate preincubated for 20 mins followed by [gamma-33P]-ATP addition and measured after 120 mins by radiometric Hot-SpotSM Kinase assay relative to control
[2] = target: Dual specificity tyrosine-phosphorylation-regulated kinase 1A (Homo sapiens) (UniProt Q13627); assay: Inhibition of human DYRK1/DYRK1A assessed as enzyme activity at 1 uM using RRRFRPASPLRGPPK as substrate preincubated for 20 mins followed by [gamma-33P]-ATP addition and measured after 120 mins by radiometric Hot-SpotSM Kinase assay relative to control
[3] = target: Mitogen-activated protein kinase 1 (Homo sapiens) (UniProt P28482); assay: Inhibition of human ERK2 assessed as enzyme activity at 1 uM using myelin basic protein as substrate preincubated for 20 mins followed by [gamma-33P]-ATP addition and measured after 120 mins by radiometric Hot-SpotSM Kinase assay relative to control
[4] = target: Fibroblast growth factor receptor 1 (Homo sapiens) (UniProt P11362); assay: Inhibition of human FGFR1 assessed as enzyme activity at 1 uM using poly[Glu:Tyr] (4:1) as substrate preincubated for 20 mins followed by [gamma-33P]-ATP addition and measured after 120 mins by radiometric Hot-SpotSM Kinase assay relative to control
[5] = target: T1, Interleukin-1 receptor-associated kinase 4 (Homo sapiens) (UniProt Q9NWZ3); assay: Inhibition of human IRAK4 assessed as enzyme activity at 1 uM using myelin basic protein as substrate preincubated for 20 mins followed by [gamma-33P]-ATP addition and measured after 120 mins by radiometric Hot-SpotSM Kinase assay relative to control
T1 sequence (whole entry): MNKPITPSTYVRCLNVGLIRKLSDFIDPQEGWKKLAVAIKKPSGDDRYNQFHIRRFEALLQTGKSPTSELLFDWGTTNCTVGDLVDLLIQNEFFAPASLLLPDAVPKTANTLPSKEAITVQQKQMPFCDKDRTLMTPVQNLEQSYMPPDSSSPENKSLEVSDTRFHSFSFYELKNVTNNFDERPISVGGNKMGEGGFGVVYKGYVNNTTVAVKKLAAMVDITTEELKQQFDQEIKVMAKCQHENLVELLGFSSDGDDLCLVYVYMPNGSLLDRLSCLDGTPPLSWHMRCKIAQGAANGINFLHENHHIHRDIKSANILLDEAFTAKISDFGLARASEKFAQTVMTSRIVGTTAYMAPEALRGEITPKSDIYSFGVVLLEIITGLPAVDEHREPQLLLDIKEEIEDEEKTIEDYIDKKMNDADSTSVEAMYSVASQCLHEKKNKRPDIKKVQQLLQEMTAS

[6] = target: LIM domain kinase 1 (Homo sapiens) (UniProt P53667); assay: Inhibition of human LIMK1 assessed as enzyme activity at 1 uM using cofilin 1 as substrate preincubated for 20 mins followed by [gamma-33P]-ATP addition and measured after 120 mins by radiometric Hot-SpotSM Kinase assay relative to control
[7] = target: Dual specificity mitogen-activated protein kinase kinase 2 (Homo sapiens) (UniProt P36507); assay: Inhibition of human MEK2 assessed as enzyme activity at 1 uM using ERK2 (K52R) as substrate preincubated for 20 mins followed by [gamma-33P]-ATP addition and measured after 120 mins by radiometric Hot-SpotSM Kinase assay relative to control
[8] = target: MAP kinase-interacting serine/threonine-protein kinase 1 (Homo sapiens) (UniProt Q9BUB5); assay: Inhibition of human MNK1 assessed as enzyme activity at 1 uM using myelin basic protein as substrate preincubated for 20 mins followed by [gamma-33P]-ATP addition and measured after 120 mins by radiometric Hot-SpotSM Kinase assay relative to control
[9] = target: Serine/threonine-protein kinase PAK 2 (Homo sapiens) (UniProt Q13177); assay: Inhibition of human PAK2 assessed as enzyme activity at 1 uM using RRRLSFAEPG as substrate preincubated for 20 mins followed by [gamma-33P]-ATP addition and measured after 120 mins by radiometric Hot-SpotSM Kinase assay relative to control
[10] = target: T2, Serine/threonine-protein kinase PLK4 (Homo sapiens) (UniProt O00444); assay: Inhibition of human PLK4 assessed as enzyme activity at 1 uM using casein as substrate preincubated for 20 mins followed by [gamma-33P]-ATP addition and measured after 120 mins by radiometric Hot-SpotSM Kinase assay relative to control
T2 sequence (whole entry): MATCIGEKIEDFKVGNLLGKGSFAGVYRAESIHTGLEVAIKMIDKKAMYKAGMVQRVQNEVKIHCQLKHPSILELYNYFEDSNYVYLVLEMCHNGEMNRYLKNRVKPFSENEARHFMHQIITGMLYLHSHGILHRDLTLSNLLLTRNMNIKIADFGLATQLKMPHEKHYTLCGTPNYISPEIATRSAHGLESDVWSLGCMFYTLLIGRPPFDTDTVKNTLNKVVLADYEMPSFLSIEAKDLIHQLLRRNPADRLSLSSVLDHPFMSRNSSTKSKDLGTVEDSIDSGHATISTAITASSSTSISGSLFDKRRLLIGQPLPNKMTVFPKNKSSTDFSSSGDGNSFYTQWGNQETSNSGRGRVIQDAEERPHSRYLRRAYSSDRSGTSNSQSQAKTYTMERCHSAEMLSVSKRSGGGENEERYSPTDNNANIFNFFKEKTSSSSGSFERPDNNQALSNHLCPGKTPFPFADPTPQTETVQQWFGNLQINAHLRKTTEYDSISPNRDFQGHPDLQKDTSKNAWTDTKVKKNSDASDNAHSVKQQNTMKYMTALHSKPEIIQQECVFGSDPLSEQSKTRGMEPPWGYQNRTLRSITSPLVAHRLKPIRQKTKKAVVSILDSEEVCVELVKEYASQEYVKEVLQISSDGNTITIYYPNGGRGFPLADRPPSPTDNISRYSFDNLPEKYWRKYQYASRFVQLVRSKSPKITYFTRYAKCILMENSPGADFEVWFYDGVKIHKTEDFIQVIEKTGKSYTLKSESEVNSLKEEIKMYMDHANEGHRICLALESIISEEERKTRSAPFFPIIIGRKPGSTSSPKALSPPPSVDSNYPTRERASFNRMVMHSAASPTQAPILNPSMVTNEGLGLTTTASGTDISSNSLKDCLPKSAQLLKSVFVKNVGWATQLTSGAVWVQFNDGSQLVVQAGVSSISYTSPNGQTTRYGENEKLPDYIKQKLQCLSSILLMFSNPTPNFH

[11] = target: Serine/threonine-protein kinase SBK1 (Homo sapiens) (UniProt Q52WX2); assay: Inhibition of human SBK1 assessed as enzyme activity at 1 uM using LCGRTGRRNSI as substrate preincubated for 20 mins followed by [gamma-33P]-ATP addition and measured after 120 mins by radiometric Hot-SpotSM Kinase assay relative to control
Serine/threonine-protein kinase SBK1 (Homo sapiens), sequence (Q52WX2 whole entry): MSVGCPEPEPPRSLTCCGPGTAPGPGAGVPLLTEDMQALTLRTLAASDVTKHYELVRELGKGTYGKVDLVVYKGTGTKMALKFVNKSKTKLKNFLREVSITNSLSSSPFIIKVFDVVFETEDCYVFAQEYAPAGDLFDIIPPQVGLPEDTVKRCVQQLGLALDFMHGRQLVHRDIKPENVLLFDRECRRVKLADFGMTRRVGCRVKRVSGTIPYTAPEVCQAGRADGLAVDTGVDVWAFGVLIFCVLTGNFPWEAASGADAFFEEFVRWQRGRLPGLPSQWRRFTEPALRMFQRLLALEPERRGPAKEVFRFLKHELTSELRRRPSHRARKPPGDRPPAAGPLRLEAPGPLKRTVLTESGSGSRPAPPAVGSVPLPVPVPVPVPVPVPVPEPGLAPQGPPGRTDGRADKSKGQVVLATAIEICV

Serine/threonine-protein kinase PAK 2 (Homo sapiens), sequence (Q13177 whole entry): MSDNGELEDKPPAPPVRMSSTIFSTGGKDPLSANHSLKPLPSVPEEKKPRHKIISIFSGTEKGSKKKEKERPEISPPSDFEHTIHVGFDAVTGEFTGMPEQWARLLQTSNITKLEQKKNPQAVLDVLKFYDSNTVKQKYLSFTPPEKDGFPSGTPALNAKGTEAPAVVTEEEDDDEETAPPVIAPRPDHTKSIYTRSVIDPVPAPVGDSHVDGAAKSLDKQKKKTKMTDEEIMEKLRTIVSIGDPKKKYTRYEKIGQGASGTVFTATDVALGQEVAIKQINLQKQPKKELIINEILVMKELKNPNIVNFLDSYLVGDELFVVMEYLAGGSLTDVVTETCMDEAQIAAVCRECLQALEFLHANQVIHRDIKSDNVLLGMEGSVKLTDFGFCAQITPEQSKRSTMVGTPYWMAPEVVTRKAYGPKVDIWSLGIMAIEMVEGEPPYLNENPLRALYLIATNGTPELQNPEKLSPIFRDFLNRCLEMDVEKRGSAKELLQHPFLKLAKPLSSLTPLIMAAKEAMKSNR
Calcium/calmodulin-dependent protein kinase type 1 (Homo sapiens), sequence (Q14012 whole entry, looked up): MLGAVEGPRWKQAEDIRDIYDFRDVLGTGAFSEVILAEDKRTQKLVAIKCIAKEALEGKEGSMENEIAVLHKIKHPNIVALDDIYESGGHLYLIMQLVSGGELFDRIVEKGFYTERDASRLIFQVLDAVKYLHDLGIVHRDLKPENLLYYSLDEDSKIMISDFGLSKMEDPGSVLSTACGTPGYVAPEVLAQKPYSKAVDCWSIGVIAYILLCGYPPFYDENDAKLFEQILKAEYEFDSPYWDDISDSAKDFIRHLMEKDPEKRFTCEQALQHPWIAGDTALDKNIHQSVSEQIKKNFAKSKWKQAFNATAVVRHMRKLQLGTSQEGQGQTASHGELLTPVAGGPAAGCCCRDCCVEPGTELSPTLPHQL
Dual specificity mitogen-activated protein kinase kinase 2 (Homo sapiens), sequence (P36507 whole entry): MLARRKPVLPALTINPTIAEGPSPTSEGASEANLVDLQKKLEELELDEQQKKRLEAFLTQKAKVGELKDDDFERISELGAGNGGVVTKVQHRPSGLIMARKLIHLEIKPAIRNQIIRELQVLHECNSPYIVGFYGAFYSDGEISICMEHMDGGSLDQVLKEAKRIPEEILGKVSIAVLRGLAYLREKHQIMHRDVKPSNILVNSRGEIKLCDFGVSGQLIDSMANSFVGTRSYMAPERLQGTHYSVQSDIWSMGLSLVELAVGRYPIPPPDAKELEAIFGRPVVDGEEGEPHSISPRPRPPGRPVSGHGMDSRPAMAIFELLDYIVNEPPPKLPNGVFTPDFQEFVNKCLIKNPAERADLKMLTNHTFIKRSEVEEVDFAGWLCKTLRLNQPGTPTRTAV
MAP kinase-interacting serine/threonine-protein kinase 1 (Homo sapiens), sequence (Q9BUB5 whole entry, looked up): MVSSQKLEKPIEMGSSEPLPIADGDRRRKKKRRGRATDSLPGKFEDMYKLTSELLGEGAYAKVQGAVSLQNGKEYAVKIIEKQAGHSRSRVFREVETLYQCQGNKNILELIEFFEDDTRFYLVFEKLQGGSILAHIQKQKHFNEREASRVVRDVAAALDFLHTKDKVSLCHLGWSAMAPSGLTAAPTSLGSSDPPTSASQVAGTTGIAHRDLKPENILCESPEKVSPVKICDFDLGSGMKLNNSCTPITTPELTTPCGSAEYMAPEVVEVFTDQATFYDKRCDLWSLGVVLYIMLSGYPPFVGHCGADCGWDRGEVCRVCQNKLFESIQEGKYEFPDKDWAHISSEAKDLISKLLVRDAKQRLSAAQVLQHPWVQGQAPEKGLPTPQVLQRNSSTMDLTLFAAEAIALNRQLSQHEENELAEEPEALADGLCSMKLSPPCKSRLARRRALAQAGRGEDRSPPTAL
Mitogen-activated protein kinase 1 (Homo sapiens), sequence (P28482 whole entry): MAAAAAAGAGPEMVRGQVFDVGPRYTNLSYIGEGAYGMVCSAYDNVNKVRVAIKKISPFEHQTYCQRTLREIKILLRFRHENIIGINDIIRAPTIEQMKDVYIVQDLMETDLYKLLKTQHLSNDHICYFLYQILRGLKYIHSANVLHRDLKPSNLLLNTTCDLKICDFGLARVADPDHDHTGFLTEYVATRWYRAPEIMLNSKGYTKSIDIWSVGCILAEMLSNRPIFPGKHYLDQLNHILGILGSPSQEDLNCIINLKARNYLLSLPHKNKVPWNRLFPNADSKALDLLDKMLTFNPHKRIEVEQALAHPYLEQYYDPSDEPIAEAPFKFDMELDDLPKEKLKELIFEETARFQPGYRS
Fibroblast growth factor receptor 1 (Homo sapiens), sequence (P11362 22-822 limits assumed): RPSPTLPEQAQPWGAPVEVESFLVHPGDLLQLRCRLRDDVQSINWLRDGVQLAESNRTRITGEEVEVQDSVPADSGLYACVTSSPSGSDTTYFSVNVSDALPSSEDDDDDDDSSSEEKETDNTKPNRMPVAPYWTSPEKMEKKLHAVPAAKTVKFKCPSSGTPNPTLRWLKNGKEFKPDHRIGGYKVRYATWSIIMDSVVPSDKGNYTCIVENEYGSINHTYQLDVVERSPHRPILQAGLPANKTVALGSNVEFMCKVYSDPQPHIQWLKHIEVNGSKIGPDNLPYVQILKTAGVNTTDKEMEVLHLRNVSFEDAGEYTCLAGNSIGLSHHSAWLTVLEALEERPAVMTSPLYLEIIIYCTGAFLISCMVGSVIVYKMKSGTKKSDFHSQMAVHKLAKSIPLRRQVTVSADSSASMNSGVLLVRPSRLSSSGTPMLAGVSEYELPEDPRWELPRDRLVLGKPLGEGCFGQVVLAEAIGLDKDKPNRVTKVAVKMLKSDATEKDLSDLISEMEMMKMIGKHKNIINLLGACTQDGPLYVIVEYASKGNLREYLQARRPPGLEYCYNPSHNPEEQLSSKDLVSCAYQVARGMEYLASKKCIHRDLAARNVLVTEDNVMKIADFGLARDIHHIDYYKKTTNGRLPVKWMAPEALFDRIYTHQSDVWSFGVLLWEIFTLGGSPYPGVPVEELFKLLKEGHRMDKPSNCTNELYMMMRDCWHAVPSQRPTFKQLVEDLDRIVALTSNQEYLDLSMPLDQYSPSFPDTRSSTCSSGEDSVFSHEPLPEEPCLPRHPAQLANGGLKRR
LIM domain kinase 1 (Homo sapiens), sequence (P53667 whole entry, looked up, the tested form may be a part): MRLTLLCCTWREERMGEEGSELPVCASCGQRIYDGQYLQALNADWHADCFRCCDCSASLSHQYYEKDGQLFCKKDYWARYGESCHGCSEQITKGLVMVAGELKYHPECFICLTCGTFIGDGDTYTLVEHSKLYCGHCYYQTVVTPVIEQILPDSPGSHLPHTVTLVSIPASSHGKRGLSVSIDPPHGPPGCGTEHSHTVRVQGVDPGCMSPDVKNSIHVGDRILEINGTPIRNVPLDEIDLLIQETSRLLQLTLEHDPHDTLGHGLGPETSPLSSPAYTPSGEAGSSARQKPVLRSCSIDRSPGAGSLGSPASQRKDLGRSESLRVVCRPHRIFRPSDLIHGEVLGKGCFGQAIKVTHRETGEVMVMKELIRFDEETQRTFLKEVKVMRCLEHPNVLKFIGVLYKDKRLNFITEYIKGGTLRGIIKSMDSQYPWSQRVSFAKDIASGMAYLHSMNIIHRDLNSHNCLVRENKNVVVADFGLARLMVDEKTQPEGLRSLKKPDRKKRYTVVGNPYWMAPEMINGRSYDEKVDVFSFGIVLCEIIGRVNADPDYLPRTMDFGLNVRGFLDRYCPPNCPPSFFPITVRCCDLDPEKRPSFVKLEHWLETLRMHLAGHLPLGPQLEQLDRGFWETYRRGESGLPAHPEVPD

SMILES | Activity [1] [%] | Activity (Homo sapiens) [%] | Activity [2] [%] | Activity [3] [%] | Activity [4] [%] | Activity [5] [%] | Activity [6] [%] | Activity [7] [%] | Activity [8] [%] | Activity [9] [%] | Activity [10] [%] | Activity [11] [%]
CC[C@H](Nc1ncnc2[nH]cnc12)c1nc2cccc(F)c2c(=O)n1-c1ccccc1 | 96.8 | 100 | 87.8 | 93.6 | 98 | 96.3 | 87.3 | 91.5 | 96.3 | 103 | 99.9 | 101
CC(C)Oc1ccc(-c2nn([C@@H](C)c3oc4ccc(F)cc4c(=O)c3-c3cccc(F)c3)c3ncnc(N)c23)cc1F [UMBRALISIB] | 99.6 | 104 | 87 | 94.2 | 99.5 | 101 | 96.7 | 90.4 | 92 | 96.8 | 102 | 98.8
C[C@H](Nc1ncnc2nc[nH]c12)c1cc2cccc(Cl)c2c(=O)n1-c1ccccc1 | 103 | 101 | 89 | 97.2 | 95.7 | 91 | 90 | 90 | 93.5 | 100 | 91 | 99.5

From ChEMBL document CHEMBL5715954, “Silencing c-Myc translation as a therapeutic strategy through targeting PI3Kδ and CK1ε in hematological malignancies” (Blood, 2017)
